Test results reported in patent US5710179A, “Antitumor agent” (priority 1995, dated 1998).
Structures can show the parent of a compound that is named as a salt.

Key:
U-937 cell (lymphoma) = test: Inhibition of tumor growth in nude mice, U-937; format: in vivo, human; settings: 0.05 μg/mouse s.c. twice a week
[1] = test system: RPMI 4788 cell (colon cancer); test: Inhibition of tumor growth in nude mice, RPMI 4788; format: in vivo, human; settings: 0.05 μg/mouse s.c. twice a week
[2] = test system: Hep-2 cell (thyroid gland cancer); test: Inhibition of tumor growth in nude mice, Hep-2; format: in vivo, human; settings: 0.05 μg/mouse s.c. twice a week
[3] = test system: HGC-27 cell (gastric cancer); test: Inhibition of tumor growth in nude mice, HGC-27; format: in vivo, human; settings: 0.05 μg/mouse s.c. twice a week
HL-60 cell (leukemia) = test: Inhibition of tumor growth in nude mice, HL-60; format: in vivo, human; settings: 0.05 μg/mouse s.c. twice a week
[4] = test system: KB cell (rhinopharynx cancer); test: Inhibition of tumor growth in nude mice, KB; format: in vivo, human; settings: 0.05 μg/mouse s.c. twice a week
[5] = test system: HeLa cell (uterine cancer); test: Inhibition of tumor growth in nude mice, HeLa; format: in vivo, human; settings: 0.05 μg/mouse s.c. twice a week
Meth A sarcoma = test: Antitumor activity on mouse with carcinoma (Meth A sarcoma, i.p., 40 days); format: in vivo, BALB/c male mice; settings: for Average day surviving: 40 days, control 28.1 ± 0.2; for Prolongation percentage of life (T/C %): control 100; for Number surviving after 40 days: group of 10, control 0
Experimental: About 1×10^6 cells/mouse of Meth A sarcoma was intraperitoneally injected into 8-week-old BALB/c male mice. From the next day after the administration, mice in a group of 10 were intraperitoneally injected twice a week with 0.2 ml of a physiological saline containing 0.0005, 0.005, 0.05 or 0.5 μg of any one of the compounds 1-5, and observed for 40 days. As a control, 0.2 ml/mouse/shot of physiological saline free of the compounds 1-5 was intraperitoneally injected to other groups of mice similarly as above.
Based on the data of the average day surviving (T) in the Groups of mice with the compounds 1-5 and the average day surviving (C) in the control group of mice, the prolongation percentage of life (T/C %) was calculated by the formula 1. [formula]

HLC-1 cell (lung cancer) = test: Inhibition of tumor growth in nude mice, HLC-1; format: in vivo, human; parameters: Average tumor weight, on a wet cell basis: unit not given here; settings: 0.05 μg/mouse s.c. twice a week
[6] = test system: G-361 cell (malignant melanoma); test: Inhibition of tumor growth in nude mice, G-361; format: in vivo, human; settings: 0.05 μg/mouse s.c. twice a week
human malignant tumors [7] = test: Antitumor activity by the inhibition of tumor growth, nude mice, summary over human tumors; format: in vivo; settings: 0.05 μg s.c. twice a week
Experimental: Based on the data of Experiment 2, a minimum dose of the compounds 1-5 to a nude mouse was estimated to be about 0.05 μg/mouse/shot, and the antitumor activity of the compounds 1-5 was tested by administering them at the above dose to nude mice transplanted with human malignant tumors.
Thereafter mice, observed the tumor cells' insertion, were grouped in a group of 7 mice, then administered twice a week with 0.2 ml of a physiological saline containing 0.05 μg of the compound 2 to the dorsal subcutaneous tissues, and observed for 25 days. As a control, mice in other group were administered in the same administration schedule with 0.2 ml/shot of physiological saline free of the compound 2.
On the 27th day after the transplantation, tumor masses formed in the nude mice were extracted and weighed, on a wet cell basis, according to the method as disclosed by Y. Shimosato and N. Tamaoki in "Jingan-to-Nude-mouse (Human Cancer and Nude Mice)", pp. 321-323 (1982), published by Ishiyaku Publishers, Inc., Tokyo, Japan, and the percentage surviving (%) on the 35th day after the transplantation was calculated.

[8] = test system: Hep G2 cell (cancer of liver); test: Inhibition of tumor growth in nude mice, Hep G2; format: in vivo, human; settings: 0.05 μg/mouse s.c. twice a week
[9] = test system: WiDr cell (rectum cancer); test: Inhibition of tumor growth in nude mice, WiDr; format: in vivo, human; settings: 0.05 μg/mouse s.c. twice a week
human malignant tumors [10] = settings: Foods & Food Ingredients Journal of Japan, Vol.160 (1994); cited from earlier work
[11] = 0.0005 μg/0.2 ml/mouse i.p. twice a week
[12] = 0.005 μg/0.2 ml/mouse i.p. twice a week
[13] = 0.05 μg/0.2 ml/mouse i.p. twice a week
[14] = 0.05 μg/0.2 ml/mouse i.p. twice a week, all marked * (significant, 5% level or lower vs control)
[15] = 0.5 μg/0.2 ml/mouse i.p. twice a week
[16] = 0.5 μg/0.2 ml/mouse i.p. twice a week, all marked * (significant, 5% level or lower vs control)

CC(C)=CCc1cc(/C=C/C(=O)O)cc(CC=C(C)C)c1O [compound 2, sodium salt of 3-[4-hydroxy-3,5-bis(3-methyl-2-butenyl)phenyl]-2-propenoic acid]
Average tumor weight, on a wet cell basis (U-937 cell (lymphoma); 27th day after transplantation, control 0.99 ± 0.81, in g (unit assumed)): 0.25 ± 0.02
Percentage surviving at judgement (%) (U-937 cell (lymphoma); 35th day, control 85.7): 100%
Average tumor weight, on a wet cell basis ([1]; 27th day after transplantation, control 2.95 ± 1.36, in g (unit assumed)): 0.21 ± 0.03
Percentage surviving at judgement (%) ([1]; 35th day, control 71.4): 100%
Average tumor weight, on a wet cell basis ([2]; 27th day after transplantation, control 2.16 ± 1.31, in g (unit assumed)): 0.81 ± 0.65
Percentage surviving at judgement (%) ([2]; 35th day, control 42.8): 100%
Average tumor weight, on a wet cell basis ([3]; 27th day after transplantation, control 1.86 ± 0.64, in g (unit assumed)): 0.35 ± 0.09
Percentage surviving at judgement (%) ([3]; 35th day, control 85.7): 100%
Average tumor weight, on a wet cell basis (HL-60 cell (leukemia); 27th day after transplantation, control 1.43 ± 0.08, in g (unit assumed)): 0.18 ± 0.03
Percentage surviving at judgement (%) (HL-60 cell (leukemia); 35th day, control 100): 100%
Average tumor weight, on a wet cell basis ([4]; 27th day after transplantation, control 2.12 ± 0.96, in g (unit assumed)): 0.54 ± 0.03
Percentage surviving at judgement (%) ([4]; 35th day, control 42.8): 100%
Average tumor weight, on a wet cell basis ([5]; 27th day after transplantation, control 1.36 ± 0.61, in g (unit assumed)): 0.54 ± 0.06
Percentage surviving at judgement (%) ([5]; 35th day, control 100): 100%
Average day surviving (Meth A sarcoma; [11]): 32.3 ± 0.8 days
Prolongation percentage of life (T/C %) (Meth A sarcoma; [11]): 114.9%
Number surviving after 40 days (Meth A sarcoma; [11]): 2
Average day surviving (Meth A sarcoma; [12]): 36.5 ± 0.5 days
Prolongation percentage of life (T/C %) (Meth A sarcoma; [12]): 129.9%
Number surviving after 40 days (Meth A sarcoma; [12]): 6
Average day surviving (Meth A sarcoma; [13]): 38.1 ± 0.1 days
Prolongation percentage of life (T/C %) (Meth A sarcoma; [14]): 135.6%
Number surviving after 40 days (Meth A sarcoma; [13]): 8
Average day surviving (Meth A sarcoma; [15]): > 40.0 days
Prolongation percentage of life (T/C %) (Meth A sarcoma; [16]): 142.3%
Number surviving after 40 days (Meth A sarcoma; [15]): 10
Average tumor weight, on a wet cell basis (HLC-1 cell (lung cancer); 27th day after transplantation, control 1.25 ± 0.81): 0.124 ± 0.06
Percentage surviving at judgement (%) (HLC-1 cell (lung cancer); 35th day, control 71.4): 100%
Average tumor weight, on a wet cell basis ([6]; 27th day after transplantation, control 1.96 ± 0.98, in g (unit assumed)): 0.36 ± 0.02
Percentage surviving at judgement (%) ([6]; 35th day, control 57.1): 100%
antitumor effect on human malignant tumors (human malignant tumors [7]): strong antitumor effect
percentage surviving on the 35th day after the transplantation (human malignant tumors [7]): attained a desired percentage surviving
Average tumor weight, on a wet cell basis ([8]; 27th day after transplantation, control 2.06 ± 0.85, in g (unit assumed)): 0.18 ± 0.02
Percentage surviving at judgement (%) ([8]; 35th day, control 42.8): 100%
Average tumor weight, on a wet cell basis ([9]; 27th day after transplantation, control 1.83 ± 0.85, in g (unit assumed)): 0.36 ± 0.02
Percentage surviving at judgement (%) ([9]; 35th day, control 85.7): 100%

O=C(/C=C/c1ccc(O)c(O)c1)OCCc1ccccc1 [caffeic acid phenethyl ester]
antitumor activity on human malignant tumors (human malignant tumors [10]): exerted an antitumor activity

CC(C)=CCc1cc(/C=C/C(=O)O)cc(CC=C(C)C)c1O [compound 5, potassium salt of 3-[4-hydroxy-3,5-bis(3-methyl-2-butenyl)phenyl]-2-propenoic acid]
Average day surviving (Meth A sarcoma; [11]): 32.6 ± 0.6 days
Prolongation percentage of life (T/C %) (Meth A sarcoma; [11]): 116.0%
Number surviving after 40 days (Meth A sarcoma; [11]): 2
Average day surviving (Meth A sarcoma; [12]): 36.1 ± 0.5 days
Prolongation percentage of life (T/C %) (Meth A sarcoma; [12]): 128.5%
Number surviving after 40 days (Meth A sarcoma; [12]): 6
Average day surviving (Meth A sarcoma; [13]): 38.2 ± 0.4 days
Prolongation percentage of life (T/C %) (Meth A sarcoma; [14]): 135.9%
Number surviving after 40 days (Meth A sarcoma; [13]): 8
Average day surviving (Meth A sarcoma; [15]): 39.2 ± 0.3 days
Prolongation percentage of life (T/C %) (Meth A sarcoma; [16]): 139.5%
Number surviving after 40 days (Meth A sarcoma; [15]): 9

CC(C)=CCc1cc(/C=C/C(=O)O)cc(CC=C(C)C)c1O [compound 4, magnesium salt of 3-[4-hydroxy-3,5-bis(3-methyl-2-butenyl)phenyl]-2-propenoic acid]
Average day surviving (Meth A sarcoma; [11]): 34.9 ± 0.3 days
Prolongation percentage of life (T/C %) (Meth A sarcoma; [11]): 124.2%
Number surviving after 40 days (Meth A sarcoma; [11]): 3
Average day surviving (Meth A sarcoma; [12]): 35.7 ± 0.4 days
Prolongation percentage of life (T/C %) (Meth A sarcoma; [12]): 127.0%
Number surviving after 40 days (Meth A sarcoma; [12]): 5
Average day surviving (Meth A sarcoma; [13]): 37.5 ± 0.2 days
Prolongation percentage of life (T/C %) (Meth A sarcoma; [14]): 133.5%
Number surviving after 40 days (Meth A sarcoma; [13]): 7
Average day surviving (Meth A sarcoma; [15]): > 40.0 days
Prolongation percentage of life (T/C %) (Meth A sarcoma; [16]): 142.3%
Number surviving after 40 days (Meth A sarcoma; [15]): 10

CC(C)=CCc1cc(/C=C/C(=O)O)cc(CC=C(C)C)c1O [compound 1, 3-[4-hydroxy-3,5-bis(3-methyl-2-butenyl)phenyl]-2-propenoic acid]
Average day surviving (Meth A sarcoma; [11]): 33.5 ± 0.6 days
Prolongation percentage of life (T/C %) (Meth A sarcoma; [11]): 119.2%
Number surviving after 40 days (Meth A sarcoma; [11]): 3
Average day surviving (Meth A sarcoma; [12]): 35.0 ± 0.9 days
Prolongation percentage of life (T/C %) (Meth A sarcoma; [12]): 124.6%
Number surviving after 40 days (Meth A sarcoma; [12]): 5
Average day surviving (Meth A sarcoma; [13]): 37.3 ± 0.4 days
Prolongation percentage of life (T/C %) (Meth A sarcoma; [14]): 132.7%
Number surviving after 40 days (Meth A sarcoma; [13]): 7
Average day surviving (Meth A sarcoma; [15]): 39.8 ± 0.1 days
Prolongation percentage of life (T/C %) (Meth A sarcoma; [16]): 141.6%
Number surviving after 40 days (Meth A sarcoma; [15]): 9

O=c1c(O)c(-c2ccc(O)c(O)c2)oc2cc(O)cc(O)c12 [quercetin]
antitumor activity on human malignant tumors (human malignant tumors [10]): exerted an antitumor activity

CC(C)=CCc1cc(/C=C/C(=O)O)cc(CC=C(C)C)c1O [compound 3, calcium salt of 3-[4-hydroxy-3,5-bis(3-methyl-2-butenyl)phenyl]-2-propenoic acid]
Average day surviving (Meth A sarcoma; [11]): 31.1 ± 0.6 days
Prolongation percentage of life (T/C %) (Meth A sarcoma; [11]): 110.7%
Number surviving after 40 days (Meth A sarcoma; [11]): 2
Average day surviving (Meth A sarcoma; [12]): 35.9 ± 0.3 days
Prolongation percentage of life (T/C %) (Meth A sarcoma; [12]): 127.8%
Number surviving after 40 days (Meth A sarcoma; [12]): 6
Average day surviving (Meth A sarcoma; [13]): 38.9 ± 0.2 days
Prolongation percentage of life (T/C %) (Meth A sarcoma; [14]): 138.4%
Number surviving after 40 days (Meth A sarcoma; [13]): 8
Average day surviving (Meth A sarcoma; [15]): 39.0 ± 0.2 days
Prolongation percentage of life (T/C %) (Meth A sarcoma; [16]): 138.8%
Number surviving after 40 days (Meth A sarcoma; [15]): 9
